One assay has as its target human A2AR (Homo sapiens, UniProt P29274). The experiment in a line: In vitro radioligand binding assay with [3H]ZM241385 on membranes of CHO-K1 cells stably transfected with human A2AR. The conditions noted are these: for Ki: in-house, mean ± standard deviation (n ≥ 3) or mean (n = 2, single values in brackets), Cheng-Prusoff.
A further assay has as its target T1, human A1R (Homo sapiens, UniProt P30542).
T1 sequence (P30542 1-326): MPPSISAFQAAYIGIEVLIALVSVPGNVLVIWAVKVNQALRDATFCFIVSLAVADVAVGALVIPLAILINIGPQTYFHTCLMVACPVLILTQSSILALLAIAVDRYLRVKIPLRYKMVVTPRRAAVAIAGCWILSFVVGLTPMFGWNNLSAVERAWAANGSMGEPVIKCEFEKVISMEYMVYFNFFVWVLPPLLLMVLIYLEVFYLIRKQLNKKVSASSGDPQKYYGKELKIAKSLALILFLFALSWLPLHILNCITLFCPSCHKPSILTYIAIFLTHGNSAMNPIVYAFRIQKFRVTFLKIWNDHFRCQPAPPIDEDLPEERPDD
The experiment in a line: In vitro radioligand binding assay with [3H]DPCPX on membranes of CHO-K1 cells stably transfected with human A1R.

[1] abbreviates: read-out: Ki(hA1R), in-house, mean ± standard deviation (n ≥ 3) or mean (n = 2, single values in brackets), Cheng-Prusoff.

“And” between values parts separate entries of the source, which are not always exact repeats. Equal values may be shown once. Read-outs that look alike come from different tables or passages of the source.

Sequence of human A2AR (P29274 whole entry): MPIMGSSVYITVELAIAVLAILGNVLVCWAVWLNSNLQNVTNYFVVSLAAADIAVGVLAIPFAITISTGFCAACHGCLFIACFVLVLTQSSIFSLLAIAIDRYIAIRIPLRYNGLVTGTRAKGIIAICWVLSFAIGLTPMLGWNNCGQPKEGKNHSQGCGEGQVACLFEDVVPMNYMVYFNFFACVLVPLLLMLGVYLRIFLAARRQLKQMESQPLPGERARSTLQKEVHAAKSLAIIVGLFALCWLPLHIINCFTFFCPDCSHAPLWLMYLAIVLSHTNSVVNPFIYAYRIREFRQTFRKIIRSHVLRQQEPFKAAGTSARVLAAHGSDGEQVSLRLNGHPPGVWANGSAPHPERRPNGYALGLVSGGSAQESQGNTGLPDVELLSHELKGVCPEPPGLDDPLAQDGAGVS

By Ki is commonly meant a measure of affinity in units of concentration, obtained from inhibition or displacement. Take “1-((6-Fluoropyridin-2-yl)methyl)-4-(furan-2-yl)-1H-pyrazolo[3,4-d]pyrimidin-6-amine [PPY6]”: the Ki at human A2AR (read-out: Ki(hA2AR)) stood at 0.0271 ± 0.0026 µM; at human A1R (setting [1]) it was 0.566 µM.
“1-((6-Fluoropyridin-3-yl)methyl)-4-(furan-2-yl)-1H-pyrazolo[3,4-d]pyrimidin-6-amine [PPY5]”: the Ki at human A2AR (read-out: Ki(hA2AR)) turned out to be 0.0257 ± 0.0009 µM; at human A1R (setting [1]), 0.689 µM.
As to “2-((6-Amino-4-(furan-2-yl)-1H-pyrazolo[3,4-d]pyrimidin-1-yl)methyl)-5-fluoro-benzonitrile [PPY12]”, the Ki at human A2AR (read-out: Ki(hA2AR)) was 0.0667 µM; on human A1R (setting [1]), 0.81 µM.
Consider `Nc1nc(-c2ccco2)c2cnn(Cc3ccc(F)cc3)c2n1` [PPY1, 1-(4-Fluorobenzyl)-4-(furan-2-yl)-1H-pyrazolo[3,4-d]pyrimidin-6-amine], for which the Ki at human A2AR (Ki(hA2AR)) is 0.0053 µM and 0.00529 µM; on human A1R, 0.22 µM.
Take `Nc1nc(-c2ccco2)c2cnn(Cc3ccccc3F)c2n1` [PPY2, 1-(2-Fluorobenzyl)-4-(furan-2-yl)-1H-pyrazolo[3,4-d]pyrimidin-6-amine]: the Ki on human A2AR (Ki(hA2AR)) was 0.00213 ± 0.00042 µM; on human A2AR (read-out: Ki(hA2AR)) it was 0.0021 µM. In addition, on human A2AR (ortho- vs para-fluorine), the “increase of A2AR binding affinity compared with PPY1” value turned out to be 2.5 fold.
Regarding `Nc1nc(-c2ccco2)c2cnn(Cc3cccc(F)c3)c2n1` [PPY3, 1-(3-Fluorobenzyl)-4-(furan-2-yl)-1H-pyrazolo[3,4-d]pyrimidin-6-amine], the figures for the Ki on human A2AR (Ki(hA2AR)) and at human A1R were 0.0036 ± 0.00129 µM and 0.132 µM, respectively. Moreover, at human A2AR (chlorine (PPY) exchanged for fluorine), the “decrease of A2AR binding affinity compared with PPY” value came out at 3 fold.
Take `Nc1nc(-c2ccco2)c2cnn(Cc3cccnc3F)c2n1` [PPY4, 1-((2-Fluoropyridin-3-yl)methyl)-4-(furan-2-yl)-1H-pyrazolo[3,4-d]pyrimidin-6-amine]: the Ki on human A2AR (Ki(hA2AR)) was 0.0478 ± 0.0048 µM; at human A1R, 0.822 µM.
Consider `Nc1nc(-c2ccco2)c2cnn(Cc3ccnc(F)c3)c2n1` [PPY7, 1-((2-Fluoropyridin-4-yl)methyl)-4-(furan-2-yl)-1H-pyrazolo[3,4-d]pyrimidin-6-amine], for which the Ki at human A2AR (Ki(hA2AR)) is 0.161 ± 0.019 µM; on human A1R, 2.88 µM.
On to `Nc1nc(-c2ccco2)c2cnn(Cc3ccc(Br)cc3F)c2n1` [PPY8, 1-(4-Bromo-2-fluorobenzyl)-4-(furan-2-yl)-1H-pyrazolo[3,4-d]pyrimidin-6-amine], for which the values for the Ki at human A2AR (Ki(hA2AR)) and on human A1R were 0.00093 ± 0.0001 µM and 0.0313 ± 0.0155 µM, respectively. In addition, the “increase of A2AR binding affinity compared with PPY2” value on human A2AR (additional bromine) was determined as 2 fold.
`Nc1nc(-c2ccco2)c2cnn(Cc3ccc(F)cc3Br)c2n1` [PPY9, 1-(2-Bromo-4-fluorobenzyl)-4-(furan-2-yl)-1H-pyrazolo[3,4-d]pyrimidin-6-amine] returned a Ki on human A2AR (Ki(hA2AR)) of 0.0341 µM.
As to `Nc1nc(-c2ccco2)c2cnn(Cc3cc(F)cc(Br)c3)c2n1` [PPY10, 1-(3-Bromo-5-fluorobenzyl)-4-(furan-2-yl)-1H-pyrazolo[3,4-d]pyrimidin-6-amine], the Ki at human A2AR (Ki(hA2AR)) is 0.0142 µM; on human A1R it was 0.16 µM.
For the compound `Nc1nc(-c2ccco2)c2cnn(Cc3c(F)cccc3Br)c2n1` [PPY11, 1-(2-Bromo-6-fluorobenzyl)-4-(furan-2-yl)-1H-pyrazolo[3,4-d]pyrimidin-6-amine], the values for the Ki at human A2AR (Ki(hA2AR)) and at human A1R were 0.00235 ± 0.0003 µM and 0.162 ± 0.022 µM, respectively.
Turning to `N#Cc1cc(F)cc(Cn2ncc3c(-c4ccco4)nc(N)nc32)c1` [PPY14, 3-((6-Amino-4-(furan-2-yl)-1H-pyrazolo[3,4-d]pyrimidin-1-yl)methyl)-5-fluoro-benzonitrile], the Ki on human A2AR (Ki(hA2AR)) amounted to 0.291 µM; on human A1R, 0.954 µM.
The like results for `N#Cc1cccc(F)c1Cn1ncc2c(-c3ccco3)nc(N)nc21` [PPY15, 2-((6-Amino-4-(furan-2-yl)-1H-pyrazolo[3,4-d]pyrimidin-1-yl)methyl)-3-fluoro-benzonitrile] were, in that order, 0.0123 µM and 0.47 µM.
Turning to `Nc1nc(-c2ccco2)c2cnn(Cc3cccc(CCF)c3)c2n1` [PPY16, 1-(3-(2-Fluoroethyl)benzyl)-4-(furan-2-yl)-1H-yrazolo[3,4-d]pyrimidin-6-amine], the Ki on human A2AR (Ki(hA2AR)) was 0.00163 ± 0.00022 µM; at human A1R, 0.0692 ± 0.0328 µM.
In the same order, the values of `Nc1nc(-c2ccco2)c2cnn(Cc3cccc(OCCF)c3)c2n1` [PPY17, 1-(3-(2-Fluoroethoxy)benzyl)-4-(furan-2-yl)-1H-pyrazolo[3,4-d]pyrimidin-6-amine] are 0.0045 ± 0.00099 µM and 0.215 ± 0.038 µM.
At human A2AR (Ki(hA2AR)), `Nc1nc(-c2ccco2)c2cnn(Cc3cccc(OCCCF)c3)c2n1` [PPY18, 1-(3-(3-Fluoropropoxy)benzyl)-4-(furan-2-yl)-1H-pyrazolo[3,4-d]pyrimidin-6-amine] registered a Ki of 0.0768 ± 0.0129 µM.
For the compound `Nc1nc(-c2ccco2)c2cnn(CCc3ccccc3F)c2n1` [PPY19, 1-(2-Fluorophenethyl)-4-(furan-2-yl)-1H-pyrazolo[3,4-d]pyrimidin-6-amine], the Ki was determined as 0.107 µM at human A2AR (Ki(hA2AR)) and 0.245 µM at human A1R.
Regarding `Nc1nc(-c2ccco2)c2cnn(C(=O)c3ccccc3F)c2n1` [PPY21, (6-Amino-4-(furan-2-yl)-1H-pyrazolo[3,4-d]pyrimidin-1-yl)(2-fluorophenyl)-methanone], the Ki was 0.283 µM at human A2AR (Ki(hA2AR)) and 1.55 µM on human A1R.
The compound `Nc1nc(-c2ccco2)c2cnn(Cc3ccccc3)c2n1` [PPY22, 1-Benzyl-4-(furan-2-yl)-1H-pyrazolo[3,4-d]pyrimidin-6-amine] showed a Ki on human A2AR (Ki(hA2AR)) of 0.00168 ± 0.00014 µM.
As to `Nc1nc(-c2ccco2)c2cnn(Cc3cccc(Cl)c3)c2n1` [PPY, reference compound], the Ki at human A2AR (read-out: Ki(hA2AR)) came out at 0.001 ± 9e-05 µM.
As to “(6-Amino-4-(furan-2-yl)-1H-pyrazolo[3,4-d]pyrimidin-1-yl)(2-fluorophenyl)-methanone [PPY20]”, the figures for the Ki on human A2AR (read-out: Ki(hA2AR)) and on human A1R (setting [1]) were 0.275 µM and 1.42 µM, respectively.
